Tests used:
Experiment in all cases: relative viability (nuclei count vs DMSO), 5 days (fraction); higher = more cells survive
Kobe2602 + OSI-027 = compound: C1=CC(=CC=C1NC(=S)NNC2=C(C=C(C=C2[N+](=O)[O-])C(F)(F)F)[N+](=O)[O-])F [Kobe2602] + COc1cccc2cc(-c3nc([C@H]4CC[C@H](C(=O)O)CC4)n4ncnc(N)c34)[nH]c12 [OSI-027] (partner 0.5 µM)
Outline: (§1)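 Lung cancer cell lines were pin-tool dosed in 1536-well plates on the day after seeding, with either a lone drug or a fixed anchor-drug dose plus five library-drug doses (not always all listed) in √10 steps. Nuclei were counted on 4× images after 5 days. Relative viability is the ratio of treated-well to vehicle-well nuclei counts, with each value a median of duplicate plates.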

Kobe2602 + Vorinostat = compound: C1=CC(=CC=C1NC(=S)NNC2=C(C=C(C=C2[N+](=O)[O-])C(F)(F)F)[N+](=O)[O-])F [Kobe2602] + O=C(CCCCCCC(=O)Nc1ccccc1)NO [Vorinostat] (partner 1 µM)
Outline: as §1

Cabozantinib + OSI-027 = compound: COc1cc2nccc(Oc3ccc(NC(=O)C4(C(=O)Nc5ccc(F)cc5)CC4)cc3)c2cc1OC [Cabozantinib] + COc1cccc2cc(-c3nc([C@H]4CC[C@H](C(=O)O)CC4)n4ncnc(N)c34)[nH]c12 [OSI-027] (partner 0.5 µM)
Outline: as §1

Zosuquidar + Alpelisib = compound: O[C@@H](COc1cccc2ncccc12)CN1CCN([C@@H]2c3ccccc3[C@@H]3[C@H](c4ccccc42)C3(F)F)CC1 [Zosuquidar] + Cc1nc(NC(=O)N2CCC[C@H]2C(N)=O)sc1-c1ccnc(C(C)(C)C(F)(F)F)c1 [Alpelisib] (partner 2 µM)
Outline: as §1

Row | Cell Line | relative viability (Kobe2602 + OSI-027; first compound 0.2 µM) | relative viability (Kobe2602 + OSI-027; first compound 0.6325 µM) | relative viability (Kobe2602 + OSI-027; first compound 2 µM) | relative viability (Kobe2602 + OSI-027; first compound 6.325 µM) | relative viability (Kobe2602 + OSI-027; first compound 20 µM) | relative viability (Kobe2602 + Vorinostat; first compound 0.2 µM) | relative viability (Kobe2602 + Vorinostat; first compound 0.6325 µM) | relative viability (Kobe2602 + Vorinostat; first compound 2 µM) | relative viability (Kobe2602 + Vorinostat; first compound 6.325 µM) | relative viability (Kobe2602 + Vorinostat; first compound 20 µM) | relative viability (Cabozantinib + OSI-027; first compound 0.02 µM) | relative viability (Cabozantinib + OSI-027; first compound 0.06325 µM) | relative viability (Cabozantinib + OSI-027; first compound 0.2 µM) | relative viability (Cabozantinib + OSI-027; first compound 0.6325 µM) | relative viability (Cabozantinib + OSI-027; first compound 2 µM) | relative viability (Zosuquidar + Alpelisib; first compound 0.01 µM) | relative viability (Zosuquidar + Alpelisib; first compound 0.03162 µM) | relative viability (Zosuquidar + Alpelisib; first compound 0.1 µM) | relative viability (Zosuquidar + Alpelisib; first compound 0.3162 µM) | relative viability (Zosuquidar + Alpelisib; first compound 1 µM)
1 | NCI-H2405 | 0.609 | 0.616 | 0.619 | 0.727 | 0.719 | 1.05 | 1.34 | 0.998 | 1.04 | 1.02 | 0.338 | 0.699 | 0.735 | 0.651 | 0.682 | 0.968 | 0.745 | 0.605 | 0.972 | 0.837
2 | NCI-H1944 | 0.453 | 0.48 | 0.391 | 0.416 | 0.464 | 0.532 | 0.64 | 0.538 | 0.531 | 0.629 | 0.282 | 0.425 | 0.389 | 0.444 | 0.402 | 0.836 | 0.722 | 0.717 | 0.837 | 0.765
3 | NCI-H322M | 0.573 | 0.623 | 0.544 | 0.559 | 0.557 | 0.958 | 1.03 | 0.851 | 0.849 | 0.921 | 0.475 | 0.596 | 0.486 | 0.572 | 0.54 | 0.836 | 0.739 | 0.648 | 0.859 | 0.728
4 | NCI-H2085 | 0.685 | 0.898 | – | 0.677 | 0.799 | 0.772 | 0.817 | 0.794 | 0.765 | 0.733 | 0.817 | 0.756 | 0.661 | 0.66 | 0.642 | 0.957 | 0.917 | 0.893 | 1 | 0.977
5 | RERF-LC-KJ | 0.615 | 0.485 | 0.555 | 0.481 | 0.257 | 0.679 | 0.69 | 0.671 | 0.665 | 0.509 | 0.498 | 0.623 | 0.547 | 0.602 | 0.645 | 0.809 | 0.913 | 0.745 | 0.887 | 0.874
6 | NCI-H1355 | 0.395 | 0.389 | 0.411 | 0.41 | 0.441 | 0.589 | 0.687 | 0.577 | 0.588 | 0.622 | 0.291 | 0.477 | 0.412 | 0.458 | 0.411 | 0.851 | 0.801 | 0.596 | 0.971 | 0.87
7 | PC-14 | 0.836 | 0.887 | 0.87 | 0.792 | 0.339 | 0.637 | 0.788 | 0.739 | 0.75 | 0.413 | 0.388 | 0.973 | 0.0936 | 1.03 | 0.865 | 0.916 | 1.05 | 0.864 | 0.944 | 0.923
8 | NCI-H1755 | 0.748 | 0.726 | 0.685 | 0.705 | 0.747 | 0.743 | 0.743 | 0.671 | 0.744 | 0.802 | 0.627 | 0.729 | 0.775 | 0.585 | 0.575 | 0.89 | 0.951 | 0.888 | 0.94 | 0.913
9 | NCI-H1651 | 0.604 | 0.663 | 0.674 | 0.618 | 0.652 | 0.601 | 0.448 | 0.583 | 0.551 | 0.751 | 0.725 | 0.69 | 0.612 | 0.796 | 0.581 | 1.05 | 1.02 | 0.856 | 0.915 | 0.975
10 | NCI-H661 | 0.691 | 0.71 | 0.731 | 0.8 | 0.672 | 0.777 | 0.799 | 0.753 | 0.825 | 0.827 | 0.667 | 0.686 | 0.673 | 0.675 | 0.687 | 0.48 | 0.621 | 0.408 | 0.614 | 0.703
11 | NCI-H358 | 0.754 | 0.872 | 0.873 | 0.672 | 0.887 | 0.706 | 0.733 | 0.586 | 0.719 | 0.689 | 0.641 | 0.888 | 0.628 | 0.74 | 0.67 | 0.914 | 0.833 | 0.832 | 0.839 | 0.893
12 | NCI-H1395 | 0.633 | 0.866 | 0.717 | 0.731 | 0.651 | 0.786 | 1.04 | 0.733 | 0.666 | 0.93 | 0.514 | 0.675 | 0.632 | 0.69 | 0.573 | 1 | 1.01 | 0.819 | 1.17 | 1.17
13 | HCC-15 | 0.629 | 0.723 | 0.616 | 0.676 | 0.637 | 0.908 | 0.912 | 0.814 | 0.815 | 0.812 | 0.477 | 0.744 | 0.66 | 0.657 | 0.622 | 0.922 | 0.88 | 0.869 | 0.932 | 0.869
14 | PC-3 [JPC-3] | 0.715 | 0.736 | 0.74 | 0.784 | 0.759 | 0.943 | 1.1 | 0.787 | 0.874 | 0.771 | 0.652 | 0.934 | – | 0.925 | 0.768 | 0.986 | 1 | 0.91 | 1.03 | 0.994
15 | HOP-62 | 0.829 | 0.992 | 0.826 | 0.854 | 0.844 | 0.707 | 0.717 | 0.559 | 0.763 | 0.688 | 0.825 | 0.915 | 0.781 | 0.829 | 0.781 | 1.05 | 0.79 | 0.907 | 1.08 | 0.988
16 | NCI-H460 | 0.662 | 0.722 | 0.695 | 0.629 | 0.558 | – | 0.702 | 0.705 | 0.724 | 0.68 | 0.761 | 0.927 | 0.664 | 0.624 | 0.584 | 0.398 | 0.526 | 0.539 | 0.551 | 0.529

Reference: the supplement of paper PMC10307832
